Measured values: US11958842B2, “Substituted phenazines and methods of treating cancer and bacterial diseases” (Adjutec Pharma AS, priority 2016, dated 2024)
Where two headings read alike, the source gives them in different places.

Legend:
Assay type in all cases: cell-based
[1] = system: IPC-81 rat AML cells; assay: Anti-AML activity, WST-1 viability (Example 72); conditions: IPC81, IPC-81 cells
Summary of the method: (§1)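 Rat IPC-81 cells in DMEM with 10% horse serum and Molm13 cells in RPMI with 10% FBS, seeded at 150 000 cells/ml with compound dilution series. After 22 h exposure, WST-1 added for a further 2 h; absorbance read at 450 nm (620 nm reference) as viability.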

[2] = system: Molm13 cells; assay: Anti-AML activity, WST-1 viability (Example 72); conditions: Homo sapiens, Molm 13 cells, WST-1
Summary of the method: as §1

[3] = system: human acute myeloid leukemia cell line MOLM-13; assay: Cytotoxicity, WST-1 and nuclear morphology (Example 73); conditions: Homo sapiens
Summary of the method: (§2)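 MOLM-13 (RPMI/FBS), NRK and H9c2 (DMEM/10% FBS) cells under 2% or 20% O2 at 37° C were exposed to analogues for 24 h (≤1% DMSO). Viability was read by WST-1, and cell death by Hoechst 33342 nuclear morphology; EC50 came from four-parameter regression.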

[4] = system: normal rat kidney epithelial (NRK) cells; assay: as above; conditions: Rattus norvegicus
Summary of the method: as §2

[5] = system: rat cardiomyoblast (H9c2) cells; assay: as above; conditions: Rattus norvegicus; H9c2, 19% O2, 24 hours of incubation; read-out: EC50 (μM) H9c2 19% O2
Summary of the method: as §2

[6] = system: methicillin-resistant S. aureus MRSA A4-37; assay: Microbroth dilution MIC; conditions: compound alone
Method: (§3) Day 1: • Plate bacterial strain(s) on appropriate media: • Gram-negative bacteria with ESBLs or carbapenemases: green agar plates with 100 mg/L ampicillin • Gram-negative bacteria without β-lactamases: green agar plates • Gram-positive bacteria (Staphylococci and Enterococci): blood agar plates • Incubate o.n. at 37° C.
(§4) Prepare the Bacterial Inoculum: • Prepare a 0.5 McFarland suspension of bacteria in 0.85% NaCl. (Should be used within 15 min of preparation). • Dilute the 0.5 McFarland suspension 1:100 into MH broth.
(§5) Check the inoculum by diluting the prepared bacterial suspension 1:100 (10 μl bacterial suspension+990 μl 0.85% NaCl). Plate 10 μl of the dilution on MH agar plates (×2). Incubate o.n. at 37° C., count the colonies and calculate the final CFU/ml inoculum in the plate by multiplying the average number of colonies with 10000 and divide by 2. The final inoculum should be between 3-7×10^5 CFU/ml. • Add 50 μl of the prepared bacterial suspension to each well in the microtiter plate except negative growth control.
(§6) Preparation of Compounds/Antibiotics • Calculate the desired concentration-range and volume of the compounds/antibiotics in the assay. For antibiotics this will depend on the MIC to meropenem of the bacterial strains to be tested. Dilute the stock solution in MH broth. Make subsequent 2-fold dilutions in MH broth of the desired concentrations if a concentration range is to be tested (remember the extra dilution factor in the assay plate). Always include extra volume for pipetting. Take into consideration stock solutions that are made in buffers that have an effect on bacterial growth (e.g. DMSO).
(§7) This experimental design was used for the results in Tables 4 and 5 below. In Table 4, inhibitor concentration dependency on the MIC of meropenem was studied.

[7] = system: vancomycin-resistant E. faecium vanA A1-22; assay: Microbroth dilution MIC; conditions: compound alone
Method: as §3, §4, §5, §6, §7

IC50 ([2]; 2% O2, 24 h of incubation, read-out: Molm 13 IC50 2% O2): 1100 nM
IC50 ([2]; 20% O2, 24 h of incubation, read-out: Molm 13 IC50 20% O2): 1400 nM
MIC A4-37 S. aureus MRSA [6]: < 0.5 µg/mL
MIC A1-22 E. faecium vanA [7]: < 8 µg/mL
Structure (SMILES): COc1cccc2c1[n+]([O-])c1cccc(O)c1[n+]2O [Example 5a, 1-hydroxy-6-methoxyphenazine 5.10-dioxide, reference compound]
IC50 ([1]; 2% O2, 24 h of incubation, WST-1, read-out: IPC-81 IC50 2% O2): 3200 nM
IC50 ([1]; 20% O2, 24 h of incubation, WST-1, read-out: IPC-81 IC50 20% O2): 2400 nM
EC50 ([3]; MOLM-13, 2% O2, 24 hours of incubation, read-out: EC50 (μM) MOLM-13 2% O2): 0.77 ± 0.13 µM
EC50 ([3]; MOLM-13, 19% O2, 24 hours of incubation, read-out: EC50 (μM) MOLM-13 19% O2): 1.4 ± 0.3 µM
EC50 ([4]; 2% O2, 24 hours of incubation, read-out: EC50 (μM) NRK 2% O2): 76 ± 14 µM
EC50 ([4]; 19% O2, 24 hours of incubation, read-out: EC50 (μM) NRK 19% O2): 77 ± 11 µM
EC50 [5]: 46 ± 4.1 µM
